Where “and” joins values, the source holds several entries; their conditions need not be identical. Equal values may be shown once. Toxic doses and inconclusive results are not listed. The calls were made as follows: active = survival T/C of 150% or more; inactive = T/C below 125% in these data. Starred links: 1 amine or outer side, 2 acyl side, 3 side chain; linkers in the order of their positions; H or OH if unused. Positions of bridges follow the written chain, without caps; N, C: chain ends. Non-standard residues stand in square brackets, D forms with d. Residues, ends and D or L forms follow the SMILES beside them. Chains are numbered I, II in the order given. Actinocin(1to9) = Cc1c2oc3c(C)ccc(C(=O)[*:2])c3nc-2c(C(=O)[*:1])c(N)c1=O; NMeV = CN[CH](C(=O)O)C(C)C; Aze = O=C(O)[CH]1CCN1; Sar = CNCC(=O)O
System: C57BL/6 mice, intracerebral ependymoblastoma, median survival T/C
Test: NCI In Vivo Anticancer Drug Screen. Data for tumor model Ependymoblastoma (intracerebral) in C57BL/6 mice
Conditions: endpoint: median survival time, higher = longer survival
Procedure: The antitumor activity of compounds was measured in mice bearing transplantable tumors. Survival or tumor size were measured and the results are expressed as the measurement made in the treated group (T) divided by the measurement made in the vehicle treated control group (C). The tumor model used in this assay is Ependymoblastoma (intracerebral) in C57BL/6 mice

[1] = dose: 6.25 mg/kg/injection, schedule: Q01DX005 (ip), vehicle: saline
[2] = dose: 12.5 mg/kg/injection, schedule: Q01DX005 (ip), vehicle: saline
[3] = dose: 25.0 mg/kg/injection, schedule: Q01DX005 (ip), vehicle: saline

Measured: T/C

Cc1c2oc3c(C)ccc(C(=O)NC4C(=O)NC(C(C)C)C(=O)N5CCCC5C(=O)N(C)CC(=O)N(C)C(C(C)C)C(=O)OC4C)c3nc-2c(C(=O)NC2C(=O)NC(C(C)C)C(=O)N3CCC3C(=O)N(C)CC(=O)N(C)C(C(C)C)C(=O)OC2C)c(N)c1=O (stereo not given) (I: TV[Aze][Sar][NMeV] / II: TVP[Sar][NMeV]; ester I:1-I:C, II:1-II:C; linker I:N-II:N via Actinocin(1to9); configuration not given here)
inactive: dose: 12.5 micrograms/kg/injection, schedule: Q01DX005 (ip), vehicle: saline 110 % of control | dose: 25.0 micrograms/kg/injection, schedule: Q01DX005 (ip), vehicle: saline 107 % of control | dose: 50.0 micrograms/kg/injection, schedule: Q01DX005 (ip), vehicle: saline 101 % of control | dose: 100.0 micrograms/kg/injection, schedule: Q01DX005 (ip), vehicle: saline 111 % of control

CC(=O)[C@]1(O)Cc2c(O)c3c(c(O)c2[C@@H](OC2CC(N)C(O)C(C)O2)C1)C(=O)c1c(O)cccc1C3=O (stereo not given in full)
inactive: dose: 7.8 micrograms/kg/injection, schedule: Q01DX005 (ip), vehicle: suspension in saline 102 % of control | dose: 15.6 micrograms/kg/injection, schedule: Q01DX005 (ip), vehicle: suspension in saline 104 % of control | dose: 31.0 micrograms/kg/injection, schedule: Q01DX005 (ip), vehicle: suspension in saline 101 % of control | dose: 62.5 micrograms/kg/injection, schedule: Q01DX005 (ip), vehicle: suspension in saline 99 % of control | dose: 125.0 micrograms/kg/injection, schedule: Q01DX005 (ip), vehicle: suspension in saline 114 % of control

Nc1nc(=S)c2ncn(C3OC(COC(=O)c4ccc(Cl)cc4)C(OC(=O)c4ccc(Cl)cc4)C3OC(=O)c3ccc(Cl)cc3)c2[nH]1 (stereo not given)
inactive: dose: 18.75 mg/kg/injection, schedule: Q01DX005 (ip), vehicle: Klucel (hydroxypropylcellulose) (HPC) 96 % of control | dose: 37.5 mg/kg/injection, schedule: Q01DX005 (ip), vehicle: Klucel (hydroxypropylcellulose) (HPC) 87 % of control

O=P1(NCCCl)OCCCN1CCCl (stereo not given)
inactive: [1] 122 % of control | [2] 110 % of control | [3] 114 % of control | dose: 25.0 mg/kg/injection, schedule: Q01DX005 (ip), vehicle: water 92 % of control and 117 % of control | dose: 50.0 mg/kg/injection, schedule: Q01DX001 (ip), vehicle: water 96 % of control | dose: 50.0 mg/kg/injection, schedule: Q01DX005 (ip), vehicle: water 90 % of control | dose: 100.0 mg/kg/injection, schedule: Q01DX001 (ip), vehicle: water 106 % of control | dose: 100.0 mg/kg/injection, schedule: Q01DX005 (ip), vehicle: water 106 % of control and 123 % of control | dose: 200.0 mg/kg/injection, schedule: Q01DX001 (ip), vehicle: water 119 % of control | dose: 200.0 mg/kg/injection, schedule: Q01DX005 (ip), vehicle: water 116 % of control

CNc1nc(N(C)C)nc(N(C)C)n1
inactive: dose: 3.12 mg/kg/injection, schedule: Q01DX005 (ip), vehicle: saline 103 % of control | [1] 96 % of control | [2] 97 % of control | [3] 108 % of control | dose: 50.0 mg/kg/injection, schedule: Q01DX005 (ip), vehicle: saline 100 % of control | dose: 100.0 mg/kg/injection, schedule: Q01DX005 (ip), vehicle: saline 113 % of control

CN(N=O)C(=O)N[C@@H](C=O)[C@@H](O)[C@H](O)[C@H](O)CO
inactive: dose: 14.5 mg/kg/injection, schedule: Q## X006 (ip), vehicle: saline 109 % of control | dose: 16.0 mg/kg/injection, schedule: Q01DX001 (ip), vehicle: saline 98 % of control and 109 % of control | dose: 16.0 mg/kg/injection, schedule: Q01DX005 (ip), vehicle: other 113 % of control | dose: 16.0 mg/kg/injection, schedule: Q01DX005 (ip), vehicle: saline 117 % of control | dose: 16.0 mg/kg/injection, schedule: Q#A X002 (ip), vehicle: saline 100 % of control and 108 % of control | dose: 29.0 mg/kg/injection, schedule: Q## X006 (ip), vehicle: saline 111 % of control | dose: 32.0 mg/kg/injection, schedule: Q01DX001 (ip), vehicle: other 105 % of control | dose: 32.0 mg/kg/injection, schedule: Q01DX001 (oral), vehicle: other 116 % of control | dose: 32.0 mg/kg/injection, schedule: Q01DX005 (ip), vehicle: other 120 % of control | dose: 32.0 mg/kg/injection, schedule: Q01DX005 (ip), vehicle: saline 114 % of control | dose: 32.0 mg/kg/injection, schedule: Q01DX005 (oral), vehicle: other 95 % of control | dose: 32.0 mg/kg/injection, schedule: Q01DX005 (oral), vehicle: saline 102 % of control | dose: 32.0 mg/kg/injection, schedule: Q## X006 (ip), vehicle: other 112 % of control | dose: 32.0 mg/kg/injection, schedule: Q#A X002 (ip), vehicle: saline 104 % of control and 114 % of control | dose: 57.9 mg/kg/injection, schedule: Q## X006 (ip), vehicle: saline 114 % of control | dose: 64.0 mg/kg/injection, schedule: Q01DX001 (oral), vehicle: other 102 % of control | dose: 64.0 mg/kg/injection, schedule: Q01DX005 (ip), vehicle: other 110 % of control | dose: 64.0 mg/kg/injection, schedule: Q01DX005 (oral), vehicle: other 103 % of control | dose: 64.0 mg/kg/injection, schedule: Q01DX005 (oral), vehicle: saline 101 % of control | dose: 64.0 mg/kg/injection, schedule: Q## X006 (ip), vehicle: other 116 % of control | dose: 64.0 mg/kg/injection, schedule: Q#A X002 (ip), vehicle: saline 89 % of control and 118 % of control | dose: 128.0 mg/kg/injection, schedule: Q01DX001 (oral), vehicle: other 101 % of control | dose: 128.0 mg/kg/injection, schedule: Q01DX005 (oral), vehicle: saline 98 % of control | dose: 128.0 mg/kg/injection, schedule: Q## X006 (ip), vehicle: other 121 % of control | dose: 128.0 mg/kg/injection, schedule: Q#A X002 (ip), vehicle: saline 89 % of control and 113 % of control | dose: 231.7 mg/kg/injection, schedule: Q## X006 (ip), vehicle: saline 119 % of control | dose: 256.0 mg/kg/injection, schedule: Q01DX001 (oral), vehicle: other 113 % of control | dose: 256.0 mg/kg/injection, schedule: Q01DX005 (oral), vehicle: other 93 % of control | dose: 256.0 mg/kg/injection, schedule: Q01DX005 (oral), vehicle: saline 103 % of control | dose: 256.0 mg/kg/injection, schedule: Q#A X002 (ip), vehicle: saline 92 % of control | dose: 512.0 mg/kg/injection, schedule: Q01DX001 (oral), vehicle: other 113 % of control | dose: 512.0 mg/kg/injection, schedule: Q01DX005 (oral), vehicle: saline 113 % of control | dose: 1024.0 mg/kg/injection, schedule: Q01DX001 (oral), vehicle: other 117 % of control

From PubChem BioAssay AID222 (DTP/NCI, 2004)
